This passage reports GI50 and TGI results from PubChem BioAssay (NCI).

Common to all, as to assay: NCI tumour cell line growth inhibition, 48 h
Experiment [1] concerns MALME-3M melanoma.
Experiment [2] deals with MDA-MB-435.
Experiment [3] deals with HCT-15 colon.
Experiment [4] has as its system HS 578T breast.
The test system of experiment [5] is HT29 colon.
Experiment [6] relates to A549 NSCLC.
Experiment [7] concerns CAKI-1 renal.
Experiment [8] relates to T-47D breast.
Experiment [9] has as its system DU-145 prostate.
Experiment [10] deals with NCI/ADR-RES ovarian.

Each structure is given as a SMILES string.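 A five-concentration, 48-hour dose response in 96-well plates underlies each endpoint, interpolated linearly between surrounding concentrations. GI50 marks 50% less growth. TGI is the concentration that stops growth completely.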

For the compound `COc1ccc2c(c1)O/C(=C\c1cccc(OCC(=O)Nc3nc4c(s3)CCCC4)c1)C2=O`, the GI50 was 2.39 µM in [1]; above 43.3 µM in [2]; 18.1 µM in [3]; 35.1 µM in experiment [4]; 25.1 µM in [5]; 29 µM in [6]. Further, the GI50 in experiment [7] is 4.66 µM; in [8], 6.39 µM; in experiment [9] it was 5.01 µM; in experiment [10] it was 60.8 µM. The TGI in [1] was 5.34 µM; in experiment [2], above 100 µM; in experiment [3], above 100 µM; in experiment [4], above 100 µM; in experiment [5] it was above 100 µM; in [6], above 100 µM. Also, the TGI in experiment [7] is above 100 µM; in [8] it was above 100 µM; in experiment [9] it was 19.7 µM; in experiment [10], above 100 µM.

Take `CC(C)=CCc1c2c(c3occ(-c4ccc(O)c(O)c4)c(=O)c3c1O)C=CC(C)(C)O2`: the TGI in [1] came out at 2.53 µM; in experiment [2], 3.2 µM; in [3], 5.35 µM; in experiment [4] it was 3.73 µM; in [5], 3.84 µM; in [6], 7.6 µM. The TGI in experiment [7] worked out at 3.02 µM; in experiment [8], 10.5 µM; in [9] it was 9.32 µM; in [10] it was 5.87 µM.

Consider `CC1(C)C(c2ccccc2)=[N+]([O-])C(C)(C)N1O`, for which the TGI in experiment [1], in experiment [2], in [3], in experiment [4], in experiment [5] and in experiment [6] was above 10 µM throughout. For the same compound, the TGI in [7], in experiment [8], in [9] and in experiment [10] was above 10 µM throughout.

For `CN(C)NC(=S)Nc1ccccc1Br`, the TGI in experiment [1], in experiment [2], in experiment [3], in experiment [4], in experiment [5] and in [6] was above 100 µM each time. Further, the TGI in experiment [7], in experiment [8], in experiment [9] and in experiment [10] was above 100 µM in each case.

In the case of `COP(=O)(O)/C=C/C(NC(=O)C(Cl)(Cl)Cl)c1ccccc1` (stereo not given), the TGI in experiment [1], in experiment [2], in experiment [3], in experiment [4], in experiment [5] and in experiment [6] was above 100 µM throughout. In addition, the TGI in experiment [7], in [8], in experiment [9] and in experiment [10] was above 100 µM each time.

Take `O=C(O)[C@@H]1C[C@@H](O)CN1C(=O)OCc1ccccc1`: the TGI in experiment [1], in [2], in [3], in experiment [4], in experiment [5] and in [6] was above 100 µM each time. The TGI in experiment [7], in experiment [8], in experiment [9] and in experiment [10] was above 100 µM in each case.

As for `C=C1[C@@H](O)C[C@@]23CC[C@@H]4[C@@]5(C)CC[C@@H](OC(C)=O)C(C)(C)[C@@H]5C[C@@H](OC5OC(COC(C)=O)C(O)C(O)C5O)[C@@]4(C)C2=CC[C@H]3[C@H]1C` (stereo not given in full), the TGI in experiment [1] is 23.9 µM; in experiment [2] it was 15.3 µM; in experiment [3], 27.8 µM; in experiment [4] it was 22.4 µM; in experiment [5], 4.75 µM; in experiment [6], 16.8 µM. In addition, the TGI is 26.7 µM in experiment [7], 19.2 µM in experiment [8], 22.6 µM in [9] and 35.3 µM in [10].

As to `O=C(O)C1CC(c2ccc(F)cc2)=Nc2ccc(F)cc2S1` (stereo not given), the TGI in experiment [1], in experiment [2], in experiment [3], in experiment [4], in experiment [5] and in [6] was above 100 µM throughout. The TGI in experiment [7], in experiment [8], in experiment [9] and in experiment [10] was above 100 µM each time.

For `CCC1=CCC23C(=O)C=CC(=O)C2(C1)C(=O)c1cccc(OC)c1C3=O` (stereo not given), the TGI in experiment [1] stood at 30 µM; in [2] it was 30.8 µM; in experiment [3], 37 µM; in [4] it was 57.3 µM; in [5] it was 55.8 µM; in [6] it was 51.5 µM. For the same compound, the TGI stood at 26.1 µM in experiment [7], 22.6 µM in experiment [8], 32.2 µM in [9] and 59.5 µM in experiment [10].

On to `O=c1c2ncn(C3CC(O)C(CO)O3)c2nnn1Cc1ccccc1[N+](=O)[O-]` (stereo not given), for which the TGI in [1], in experiment [2], in experiment [3], in [4], in experiment [5] and in experiment [6] was above 100 µM throughout. The TGI in [7], in experiment [8], in experiment [9] and in experiment [10] was above 100 µM throughout.

For the compound `Cc1ccc(S(=O)(=O)N2CCSCCSCCSCCSCC2)cc1`, the TGI is above 100 µM in experiment [1]; above 100 µM in [2]; above 100 µM in [3]; above 53.1 µM in experiment [4]; above 100 µM in experiment [5]; above 100 µM in experiment [6]. The TGI in experiment [7] was 66.4 µM; in experiment [8], 74.1 µM; in [9], above 100 µM; in experiment [10], 77.1 µM.

For the compound `NC(CSCc1ccccc1)C(=O)O` (stereo not given), the TGI in experiment [1], in experiment [2], in experiment [3], in experiment [4], in [5] and in experiment [6] was above 100 µM in each case. For the same compound, the TGI in [7], in experiment [8], in experiment [9] and in experiment [10] was above 100 µM each time.

On to `O=C(CN1CCCCC1)CC(O)(C(F)(F)F)C(F)(F)F`, for which the TGI in experiment [1], in experiment [2], in experiment [3], in experiment [4], in experiment [5] and in experiment [6] was above 100 µM throughout. Besides, the TGI in experiment [7], in [8], in [9] and in [10] was above 100 µM throughout.

As for `COC(=O)c1c(C)cccc1/C=C1/Cc2c(C)cccc2C1=O`, the TGI in experiment [1], in experiment [2], in [3], in experiment [4], in experiment [5] and in [6] was above 100 µM in each case. In addition, the TGI in [7], in experiment [8], in experiment [9] and in experiment [10] was above 100 µM each time.

`N#Cc1nc(-c2cc([N+](=O)[O-])cc([N+](=O)[O-])c2)oc1N`: the TGI in experiment [1], in [2], in [3], in [4], in experiment [5] and in experiment [6] was above 10 µM in each case. Also, the TGI in experiment [7], in [8], in experiment [9] and in experiment [10] was above 10 µM in each case.

Take `Cc1ccccc1OC(C)C(=O)NN1C(=O)CC(=O)N(c2ccc(Cl)cc2)C1=S` (stereo not given): the TGI in experiment [1], in experiment [2], in experiment [3], in experiment [4], in experiment [5] and in experiment [6] was above 100 µM throughout. The TGI in experiment [7], in experiment [8], in experiment [9] and in [10] was above 100 µM each time.
